Values of other authors in patent US20140271903A1, “USE OF THERMO-SENSITIVE GEL FOR CONTROLLED DELIVERY OF ALK-5 INHIBITORS TO THE EYE AND RELATED METHODS” (NORTHEAST OHIO MEDICAL UNIVERSITY, priority 2013, published 2014).

What was measured:
[1] = test system: rabbit subconjunctival fibroblasts; conditions: cultured rabbit subconjunctival fibroblasts
[2] = test system: rabbit subconjunctival fibroblasts

| SMILES | bleb survival (in vivo rabbit GFS model; recent rabbit studies, post-operative scarring after GFS) | downstream proteins of TGF-β: CTGF and a-SMA [1] | cytotoxicity and cell death versus antimetabolites (5-FU, MMC) [2] | bleb survival period compared to MMC (in vivo rabbit GFS model; in vivo rabbit GFS model) | period of filtering bleb survival (in vivo rabbit GFS model; in vivo rabbit GFS model) | toxicity in GFS compared to MMC (in vivo rabbit GFS model; rabbit, in vivo) |
| --- | --- | --- | --- | --- | --- | --- |
| CO[C@@]12[C@H](COC(N)=O)C3=C(C(=O)C(C)=C(N)C3=O)N1C[C@@H]1N[C@@H]12 [MMC, mitomycin-C] | around 30 days | – | – | – | – | – |
| Cc1cccc(-c2[nH]c(C(C)(C)C)nc2-c2ccc3c(c2)OCO3)n1 [SB-505124] | – | marked reduction | less cytotoxic and causing less cell death than antimetabolites | substantially shorter compared to MMC | extended the period of filtering bleb survival | substantially lower than that of MMC |
